This passage reports IC50 results from patent US12209102B2, “Heterocyclic compounds and uses thereof” (Kumquat Biosciences Inc., priority 2022, dated 2025).

The subject of one test is SW620 cells. Put plainly: Ras cellular assay, growth of cells with K-Ras G12V mutation (CellTiter-Glo). The test is classed as cell-based. As to conditions: Homo sapiens, SW-620; cell growth, Example 9, G12V mutation; read-out: IC50 against SW620 cells. The protocol: For example, this assay can be also used to assess a selective growth inhibition of a mutant Ras protein relative to a wildtype, or relative to a different mutant Ras protein.
SW620 (ATCC CCL-227) and Capan-1 (ATCC HTB-79) cell lines comprise a G12V mutation and can be used to assess Ras cellular signaling in vitro, e.g., in response to the compounds herein. SW620 culture medium is prepared with RPMI-1640 and 10% heat-inactivated FBS. Capan-1 culture medium is prepared with RPMI-1640 and 10% heat-inactivated FBS. A CellTiter-Glo (CTG) luminescent based assay (Promega) is used to assess growth of the cells, as a measurement of the ability of the compounds herein to inhibit Ras signaling in the cells. The cells (e.g., 800 per well) are seeded in their respective culture medium in standard tissue culture-treated 384-well format plates (Falcon #08-772-116) or ultra-low attachment surface 384-well format plates (S-Bio #MS-9384WZ). The day after plating, cells are treated with a dilution series (e.g., a 10 point 3-fold dilution series) of the compounds herein (e.g., approximately 40 μL final volume per well). Cell viability can be monitored (e.g., approximately 6 days later) according to the manufacturer's recommended instructions, where the CellTiter-Glo reagent is added (e.g., approximately 10 μL), vigorously mixed, covered, and placed on a plate shaker (e.g., approximately for 20 min) to ensure sufficient cell lysis prior to assessment of luminescent signal. The IC50 values are determined using the four parameter fit. The resulting IC50 value is a measurement of the ability of the compounds herein to reduce cell growth of Ras-driven cells (e.g., tumor cell lines) in vitro and/or in vivo.

A further test has as its target T1, K-Ras G12V (Homo sapiens, UniProt P01116, G12V).
T1 construct: made in house; host or cells: E. coli BL21 (DE3)
Kind of test: HTRF resonance energy transfer assay, K-Ras G12V / SOS1 interaction. The test is classed as biochemical. As to conditions: HTRF assay of Example 5; read-out: IC50 against K-Ras G12V. In a few lines: (§1)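 Read-out: HTRF 665/620 nm ratio (excitation 337 nm) after roughly 10 min or longer incubation, used to derive IC50. Donor anti-GST-Eu on GST-K-Ras; acceptor anti-6His-XL665 on His-hSOS1. Duplicate dose series from 10 μM down to 0.01 μM.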

The next test addresses T2, K-Ras WT (Homo sapiens, UniProt P01116).
T2 construct: made in house; host or cells: E. coli BL21 (DE3)
Kind of test: HTRF resonance energy transfer assay, K-Ras WT / SOS1 interaction. As to conditions: HTRF assay of Example 5; read-out: IC50 against K-Ras WT. The test is classed as biochemical. In a few lines:
as §1

The target of the next test is T3, K-Ras G12D (Homo sapiens, UniProt P01116, G12D).
T3 construct: made in house; host or cells: E. coli BL21 (DE3)
T3 sequence (P01116 1-188 isoform P01116-2 G12D): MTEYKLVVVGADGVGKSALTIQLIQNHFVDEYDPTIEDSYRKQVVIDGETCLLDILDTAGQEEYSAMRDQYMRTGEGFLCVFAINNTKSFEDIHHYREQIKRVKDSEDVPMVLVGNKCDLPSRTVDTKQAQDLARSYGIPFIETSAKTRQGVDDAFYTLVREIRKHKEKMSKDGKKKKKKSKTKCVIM
Kind of test: HTRF resonance energy transfer assay, K-Ras G12D / SOS1 interaction. As to conditions: HTRF assay of Example 5; read-out: IC50 against K-Ras G12D. The test is classed as biochemical. In a few lines:
as §1

Another test has as its target T4, K-Ras G12S (Homo sapiens, UniProt P01116, G12S).
T4 construct: made in house; host or cells: E. coli BL21 (DE3)
Kind of test: HTRF resonance energy transfer assay, K-Ras G12S / SOS1 interaction. The test is classed as biochemical. The following applies: HTRF assay of Example 5; read-out: IC50 against K-Ras G12S. In a few lines: as §1

T1 sequence (P01116 1-188 isoform P01116-2 G12V): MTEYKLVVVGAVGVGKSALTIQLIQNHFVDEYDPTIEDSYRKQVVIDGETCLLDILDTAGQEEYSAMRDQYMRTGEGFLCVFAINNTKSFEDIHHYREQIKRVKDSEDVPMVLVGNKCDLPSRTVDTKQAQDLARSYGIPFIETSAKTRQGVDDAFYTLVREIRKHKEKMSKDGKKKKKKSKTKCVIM
T2 sequence (P01116 1-188 isoform P01116-2): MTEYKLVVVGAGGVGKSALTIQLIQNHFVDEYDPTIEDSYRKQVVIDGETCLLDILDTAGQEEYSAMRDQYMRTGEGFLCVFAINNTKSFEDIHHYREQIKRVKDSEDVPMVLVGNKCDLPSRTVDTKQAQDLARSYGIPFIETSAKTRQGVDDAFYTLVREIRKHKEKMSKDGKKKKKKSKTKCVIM
T4 sequence (P01116 1-188 isoform P01116-2 G12S): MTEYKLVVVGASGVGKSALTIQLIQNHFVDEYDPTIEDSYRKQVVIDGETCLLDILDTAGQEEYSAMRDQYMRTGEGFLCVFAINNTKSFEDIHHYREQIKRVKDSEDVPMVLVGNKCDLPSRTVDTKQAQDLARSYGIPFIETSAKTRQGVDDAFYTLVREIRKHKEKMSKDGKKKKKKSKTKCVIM

In the case of `CC1COc2c(Cl)c(-c3ccc(F)c4sc(N)c(C#N)c34)c(F)c3nc(OC[C@@]45CCCN4C[C@H](F)C5)nc(c23)N1CC(F)F` (single isomer, unassigned) [Compound 616], the IC50 in the test on SW620 cells is under 5000 nM; at K-Ras G12V, under 100 nM; on K-Ras WT, under 100 nM; at K-Ras G12D, under 100 nM; on K-Ras G12S, under 100 nM.

As for `N#Cc1c(N)sc2c(F)ccc(-c3c(Cl)c4c5c(nc(OC[C@@]67CCCN6C[C@H](F)C7)nc5c3F)N(CC(F)F)[C@@H](C=C(F)F)CO4)c12` (single isomer, unassigned) [Compound 751], the IC50 with SW620 cells is under 5000 nM; on K-Ras G12V, under 100 nM; on K-Ras WT, under 100 nM; at K-Ras G12D, under 100 nM; at K-Ras G12S it was under 100 nM.

With `CN(C)C(=O)C1CC(N2CCOc3c(Cl)c(-c4ccc(F)c5sc(N)c(C#N)c45)c(F)c4nc(OC[C@@]56CCCN5C[C@H](F)C6)nc2c34)C1` (single isomer, unassigned) [Compound 754], the IC50 in the test on SW620 cells was under 5000 nM; on K-Ras G12V, under 100 nM; at K-Ras WT, under 100 nM; at K-Ras G12D, under 100 nM; on K-Ras G12S it was under 100 nM.

Take `N#Cc1c(N)sc2c(F)ccc(-c3c(Cl)c4c5c(nc(OC[C@@]67CCCN6C[C@H](F)C7)nc5c3F)N(CC3CC3C#N)[C@@H](C3(O)CC3)CO4)c12` (single isomer, unassigned) [Compound 821]: the half-inhibitory concentration (IC50) is under 5000 nM in the test on SW620 cells; under 100 nM at K-Ras G12V; under 100 nM at K-Ras WT; under 100 nM on K-Ras G12D; under 100 nM at K-Ras G12S.

For `CC[C@H]1COc2c(Cl)c(-c3ccc(F)c4sc(N)c(C#N)c34)c(F)c3nc(OC[C@@]45CCCN4C[C@H](F)C5)nc(c23)N1CC(F)F` [Compound 619, 2-amino-4-((5S)-8-chloro-4-(2,2-difluoroethyl)-5-ethyl-10-fluoro-2-(((2R,7aS)-2-fluorotetrahydro-1H-pyrrolizin-7a(5H)-yl)methoxy)-5,6-dihydro-4H-[1,4]oxazepino[5,6,7-de]quinazolin-9-yl)-7-fluorobenzo[b]thiophene-3-carbonitrile], the 50% inhibitory concentration (IC50) is under 5000 nM with SW620 cells; under 100 nM at K-Ras G12V; under 100 nM at K-Ras WT; under 100 nM at K-Ras G12D; under 100 nM on K-Ras G12S.

Turning to `COC(C)[C@H]1COc2c(Cl)c(-c3ccc(F)c4sc(N)c(C#N)c34)c(F)c3nc(OC[C@@]45CCCN4C[C@H](F)C5)nc(c23)N1CC(F)F` (stereo partly drawn) [Compound 630, 2-amino-4-((5R)-8-chloro-4-(2,2-difluoroethyl)-10-fluoro-2-(((2R,7aS)-2-fluorotetrahydro-1H-pyrrolizin-7a(5H)-yl)methoxy)-5-(1-methoxyethyl)-5,6-dihydro-4H-[1,4]oxazepino[5,6,7-de]quinazolin-9-yl)-7-fluorobenzo[b]thiophene-3-carbonitrile], the half-inhibitory concentration (IC50) is under 5000 nM in the test with SW620 cells; under 100 nM at K-Ras G12V; under 100 nM on K-Ras WT; under 100 nM on K-Ras G12D; under 100 nM at K-Ras G12S.

For the compound `CC(O)C1COc2c(Cl)c(-c3ccc(F)c4sc(N)c(C#N)c34)c(F)c3nc(OC[C@@]45CCCN4C[C@H](F)C5)nc(c23)N1CC1CCNC1` (stereo partly drawn) [Compound 632, 2-amino-4-(8-chloro-10-fluoro-2-(((2R,7aS)-2-fluorotetrahydro-1H-pyrrolizin-7a(5H)-yl)methoxy)-5-(1-hydroxyethyl)-4-(pyrrolidin-3-ylmethyl)-5,6-dihydro-4H-[1,4]oxazepino[5,6,7-de]quinazolin-9-yl)-7-fluorobenzo[b]thiophene-3-carbonitrile], the concentration for half-maximal inhibition (IC50) in the test on SW620 cells was under 5000 nM; at K-Ras G12V, under 100 nM; at K-Ras WT, under 100 nM; on K-Ras G12D, under 100 nM; at K-Ras G12S it was under 100 nM.

As for `CN(C)C1CCC(N2CCOc3c(Cl)c(-c4ccc(F)c5sc(N)c(C#N)c45)c(F)c4nc(OC[C@@]56CCCN5C[C@H](F)C6)nc2c34)C1` (stereo partly drawn) [Compound 677, 2-amino-4-(8-chloro-4-(3-(dimethylamino)cyclopentyl)-10-fluoro-2-(((2R,7aS)-2-fluorotetrahydro-1H-pyrrolizin-7a(5H)-yl)methoxy)-5,6-dihydro-4H-[1,4]oxazepino[5,6,7-de]quinazolin-9-yl)-7-fluorobenzo[b]thiophene-3-carbonitrile], the IC50 was under 5000 nM with SW620 cells; under 100 nM at K-Ras G12V; under 100 nM on K-Ras WT; under 100 nM at K-Ras G12D; under 100 nM at K-Ras G12S.

As to `CN(CCCN1c2nc(OC[C@@]34CCCN3C[C@H](F)C4)nc3c(F)c(-c4ccc(F)c5sc(N)c(C#N)c45)c(Cl)c(c23)OCC1CC#N)C(=O)[C@H]1CN1` (stereo partly drawn) [Compound 709, (2R)—N-(3-(9-(2-amino-3-cyano-7-fluorobenzo[b]thiophen-4-yl)-8-chloro-5-(cyanomethyl)-10-fluoro-2-(((2R,7aS)-2-fluorotetrahydro-1H-pyrrolizin-7a(5H)-yl)methoxy)-5,6-dihydro-4H-[1,4]oxazepino[5,6,7-de]quinazolin-4-yl)propyl)-N-methylaziridine-2-carboxamide], the IC50 was under 5000 nM in the test on SW620 cells; under 100 nM on K-Ras G12V; under 100 nM on K-Ras WT; under 100 nM on K-Ras G12D; under 100 nM at K-Ras G12S.

`CC(C)[C@H](N)C(=O)N1CCC(N2C[C@H](C)Oc3c(Cl)c(-c4ccc(F)c5sc(N)c(C#N)c45)c(F)c4nc(OC[C@@]56CCCN5C[C@H](F)C6)nc2c34)C1` (stereo partly drawn) [Compound 714, 4-((6S)-4-(1-(L-valyl)pyrrolidin-3-yl)-8-chloro-10-fluoro-2-(((2R,7aS)-2-fluorotetrahydro-1H-pyrrolizin-7a(5H)-yl)methoxy)-6-methyl-5,6-dihydro-4H-[1,4]oxazepino[5,6,7-de]quinazolin-9-yl)-2-amino-7-fluorobenzo[b]thiophene-3-carbonitrile]: the concentration for half-maximal inhibition (IC50) in the test with SW620 cells is under 5000 nM; on K-Ras G12V it was under 100 nM; on K-Ras WT, under 100 nM; on K-Ras G12D, under 100 nM; at K-Ras G12S, under 100 nM.

Regarding `N#Cc1c(N)sc2c(F)ccc(-c3c(Cl)c4c5c(nc(OC[C@@]67CCCN6C[C@H](F)C7)nc5c3F)N(Cc3ccnn3CC(F)F)CCO4)c12` [Compound 720, 2-amino-4-(8-chloro-4-((1-(2,2-difluoroethyl)-1H-pyrazol-5-yl)methyl)-10-fluoro-2-(((2R,7aS)-2-fluorotetrahydro-1H-pyrrolizin-7a(5H)-yl)methoxy)-5,6-dihydro-4H-[1,4]oxazepino[5,6,7-de]quinazolin-9-yl)-7-fluorobenzo[b]thiophene-3-carbonitrile], the IC50 is under 5000 nM in the test on SW620 cells; under 100 nM on K-Ras G12V; under 100 nM on K-Ras WT; under 100 nM on K-Ras G12D; under 100 nM on K-Ras G12S.

As for `C[C@H]1COc2c(Cl)c(-c3ccc(F)c4sc(N)c(C#N)c34)c(F)c3nc(OC[C@@]45CCCN4C[C@H](F)C5)nc(c23)N1C1CCOC1` (stereo partly drawn) [Compound 750, 2-amino-4-((5S)-8-chloro-10-fluoro-2-(((2R,7aS)-2-fluorotetrahydro-1H-pyrrolizin-7a(5H)-yl)methoxy)-5-methyl-4-(tetrahydrofuran-3-yl)-5,6-dihydro-4H-[1,4]oxazepino[5,6,7-de]quinazolin-9-yl)-7-fluorobenzo[b]thiophene-3-carbonitrile], the 50% inhibitory concentration (IC50) is under 5000 nM in the test with SW620 cells; under 100 nM at K-Ras G12V; under 100 nM on K-Ras WT; under 100 nM on K-Ras G12D; under 100 nM on K-Ras G12S.

For `CC(O)C1COc2c(Cl)c(-c3ccc(F)c4sc(N)c(C#N)c34)c(F)c3nc(OC[C@@]45CCCN4C[C@H](F)C5)nc(c23)N1CC1CCCNC1` (stereo partly drawn) [Compound 764, 2-amino-4-(8-chloro-10-fluoro-2-(((2R,7aS)-2-fluorotetrahydro-1H-pyrrolizin-7a(5H)-yl)methoxy)-5-(1-hydroxyethyl)-4-(piperidin-3-ylmethyl)-5,6-dihydro-4H-[1,4]oxazepino[5,6,7-de]quinazolin-9-yl)-7-fluorobenzo[b]thiophene-3-carbonitrile], the half-maximal inhibitory concentration (IC50) with SW620 cells is under 5000 nM; on K-Ras G12V, under 100 nM; at K-Ras WT, under 100 nM; at K-Ras G12D, under 100 nM; on K-Ras G12S, under 100 nM.
